Measured values from the NIST ThermoML archive (doi:10.1021/je201102x).

Test: xn = mol fraction of the nth substance listed
Settings: 101 kPa, Liquid, Vibrating tube method

CCC(C)(C)O [2-methylbutan-2-ol] + CC(=O)O
mass density [kg/m3]
Settings	283.15 K	293.15 K	303.15 K	313.15 K	323.15 K	333.15 K
x2 = 0.0794	819.64	814.95	810.22	800.6	790.72	780.53
x2 = 0.0827	820.07	815.38	810.64	801.02	791.14	780.94
x2 = 0.1664	832.07	827.35	822.59	812.92	803.02	792.86
x2 = 0.1672	832.17	827.45	822.69	813.02	803.12	792.96
x2 = 0.2361	842.73	838.01	833.24	823.57	813.68	803.54
x2 = 0.3176	856.35	851.61	846.84	837.15	827.25	817.14
x2 = 0.3914	869.87	865.1	860.3	850.57	840.64	830.51
x2 = 0.4798	887.62	882.8	877.94	868.11	858.1	847.89
x2 = 0.5577	904.94	900.05	895.12	885.16	875.04	864.74
x2 = 0.6427	925.88	920.88	915.86	905.72	895.44	885.01
x2 = 0.7195	946.94	941.83	936.71	926.37	915.92	905.33
x2 = 0.7999	971.66	966.42	961.16	950.58	939.91	929.13
x2 = 0.8769	998.52	993.12	987.72	976.88	965.96	954.98
x2 = 0.96	1031.62	1026.04	1020.47	1009.32	998.13	986.89

CCC(C)(C)O [2-methylbutan-2-ol] + CCC(=O)O
mass density [kg/m3]
Settings	283.15 K	293.15 K	303.15 K	313.15 K	323.15 K	333.15 K
x2 = 0.0822	819.84	815.21	810.53	801.01	791.2	781.09
x2 = 0.16	830.58	825.94	821.26	811.74	801.99	791.96
x2 = 0.2419	842.49	837.85	833.18	823.69	814	804.06
x2 = 0.3189	854.39	849.75	845.08	835.62	825.96	816.07
x2 = 0.4024	868.02	863.37	858.68	849.19	839.53	829.68
x2 = 0.4806	881.53	876.85	872.13	862.6	852.91	843.03
x2 = 0.5588	895.71	890.97	886.21	876.6	866.84	856.93
x2 = 0.6429	911.85	907.05	902.23	892.5	882.64	872.64
x2 = 0.7218	927.93	923.03	918.13	908.25	898.28	888.18
x2 = 0.785	941.5	936.52	931.53	921.51	911.41	901.2
x2 = 0.8812	963.57	958.43	953.3	942.98	932.62	922.2
x2 = 0.9561	982.1	976.8	971.51	960.92	950.3	939.64

CCC(=O)O [propanoic acid] + CC(C)CO
mass density [kg/m3]
Settings	283.15 K	293.15 K	303.15 K	313.15 K	323.15 K	333.15 K
x1 = 0.0803	815.48	811.49	807.47	799.27	790.86	782.19
x1 = 0.1616	829.5	825.39	821.25	812.83	804.2	795.34
x1 = 0.2482	844.79	840.55	836.28	827.63	818.79	809.74
x1 = 0.3212	857.93	853.59	849.22	840.38	831.37	822.15
x1 = 0.4008	872.54	868.09	863.61	854.56	845.37	836
x1 = 0.4828	887.9	883.34	878.76	869.5	860.12	850.57
x1 = 0.5602	902.63	897.96	893.27	883.83	874.27	864.57
x1 = 0.6413	918.47	913.69	908.9	899.25	889.49	879.62
x1 = 0.7201	934.21	929.32	924.42	914.55	904.62	894.59
x1 = 0.8016	950.86	945.84	940.81	930.72	920.57	910.32
x1 = 0.8777	966.86	961.72	956.56	946.23	935.86	925.44
x1 = 0.9586	984.47	979.16	973.84	963.22	952.58	941.92

CCC(=O)O [propanoic acid] + CCC(C)O
mass density [kg/m3]
Settings	283.15 K	293.15 K	303.15 K	313.15 K	323.15 K	333.15 K
x1 = 0.082	819.64	815.41	811.1	802.26	793.05	783.48
x1 = 0.1717	834.26	829.91	825.51	816.5	807.2	797.57
x1 = 0.2442	846.52	842.08	837.6	828.46	819.08	809.41
x1 = 0.32	859.63	855.12	850.56	841.3	831.82	822.11
x1 = 0.4004	873.99	869.39	864.76	855.37	845.79	836
x1 = 0.4773	887.98	883.3	878.59	869.08	859.4	849.54
x1 = 0.5609	903.61	898.85	894.07	884.41	874.61	864.65
x1 = 0.6404	918.81	913.96	909.09	899.28	889.36	879.3
x1 = 0.7186	934.19	929.25	924.29	914.32	904.27	894.07
x1 = 0.8009	950.85	945.79	940.74	930.57	920.34	910.02
x1 = 0.8776	966.89	961.72	956.55	946.17	935.75	925.26
x1 = 0.9593	984.54	979.23	973.9	963.26	952.61	941.92
